Experimental data reported in patent publication US20060167109A1, “Methods of reducing rhinovirus contagion and related compositions” (priority 2002, published 2006).

What was measured:
[1] = system: HRV3; experiment: Uncoating inhibition; assay type: cell-based, human rhinovirus; details: 2 μM, 2 hours at 33° C.
Description: Following attachment to susceptible cells, rhinoviruses are endocytosed and disassembled or uncoated in order to release the viral RNA for subsequent gene expression and RNA replication. To determine if pleconaril affected the uncoating stage of the virus infection cycle, two types of experiments were carried out. In the first approach, an experiment was conducted to follow directly the fate of intact ^35S-radiolabeled (156S) virions attached to cells that were then allowed to proceed through virion disassembly (uncoating) in either the absence or presence of pleconaril. HRV3 virus was chosen for this experiment, as it is representative of the respective genera, and because binding of pleconaril was fully reversible with dilution, minimizing the possibility of drug carryover issues.
After virion attachment, either pleconaril (2 μM) or DMSO control solution was added to the cultures. After an additional 1 hour, the culture was shifted to 33° C., a temperature that permitted virus uncoating. After 2 hours, cell lysates were prepared and the amount of intact 156S virions was assessed by sedimentation of the lysates on continuous sucrose density gradients. […]

[2] = system: 10 other human viral pathogens; experiment: Antiviral specificity, viral cytopathic effect assays; assay type: cell-based
[3] = system: HRV-14; experiment: Attachment inhibition, 35S-radiolabeled virus; assay type: cell-based, human rhinovirus; details: HRV-14, ICAM-1 receptor, FIG. 5
Description: (§1) The ability of pleconaril to affect the attachment to cells of several HRV serotypes was examined. ^35S-radiolabeled virus was incubated with susceptible cells for 1 hour in the presence of various concentrations of pleconaril. Cell-associated virus was quantified by direct scintillation counting of cell lysates after removal of unbound virus.
(§2) ^35S-radiolabeled virus was preincubated with various concentrations of pleconaril or 0.5% DMSO alone for 1 hour at room temperature. Cells in 6 well plates were inoculated with 20,000 cpm of ^35S-radiolabeled virus/well in 0.5 mL of M199 medium with 5% FBS. Attachment was allowed to proceed for 1 hour at 33° C., at which time the inoculum was removed and the cells washed with 2 mL of medium. The cells were then lysed by a 15 minute incubation on ice in the presence of 250 μL/well of a solution containing detergent 1% Nonident P40 (NP40) and 20 mM chelator, ethylene diamine tetraacetic acid (EDTA) in water. Cell-associated radioactivity was quantified by liquid scintillation spectroscopy in a Wallac Model 1409 Liquid Scintillation Counter (Wallac Oy, Turku, Finland).

[4] = system: HRV-89; experiment: Attachment inhibition, 35S-radiolabeled virus; assay type: cell-based, human rhinovirus; details: HRV-89, ICAM-1 receptor, FIG. 5
Description: as §1, §2

[5] = system: HRV-3; experiment: Attachment inhibition, 35S-radiolabeled virus; assay type: cell-based, human rhinovirus; details: HRV-3, ICAM-1 receptor, FIG. 5
Description: as §1, §2

[6] = system: HRV-1A; experiment: Attachment inhibition, 35S-radiolabeled virus; assay type: cell-based, human rhinovirus; details: LDL receptor, HeLa cells
Description: as §1, §2

[7] = system: HRV-50; experiment: Attachment inhibition, 35S-radiolabeled virus; assay type: cell-based, human rhinovirus; details: HRV-50, ICAM-1 receptor, FIG. 5
Description: as §1, §2

[8] = system: HRV-2; experiment: Attachment inhibition, 35S-radiolabeled virus; assay type: cell-based, human rhinovirus; details: HRV-2, LDL receptor, HeLa cells
Description: as §1, §2

Cc1cc(CCCOc2c(C)cc(-c3noc(C(F)(F)F)n3)cc2C)on1 [pleconaril, 3-[3,5-dimethyl-4-[3-(3-methyl-5-isoxazolyl)propoxy]phenyl]-5-(trifluoromethyl)-1,2,4-oxadiazole]
reduction in the amount of attached intact 156S virions (uncoating) [1]: minimal reduction
activity against unrelated viruses [2]: no activity
IC50 ([2]; Homo sapiens, all ten viruses): > 12.5 µM
attachment of virus to cells [3]: inhibited
attachment of virus to cells [4]: inhibited
attachment of virus to cells [5]: inhibited
attachment of virus to cells [6]: able to bind to HeLa cells normally
attachment of virus to cells [7]: inhibited
attachment of virus to cells [8]: able to bind to HeLa cells normally
